Data on 17 compounds can be found in ChEMBL document CHEMBL1148657, “Diels-Alder/thiol-olefin co-oxygenation approach to antimalarials incorporating the 2,3-dioxabicyclo[3.3.1]nonane pharmacophore” (Bioorg Med Chem Lett, 2006).

The test system of experiment [1] is Plasmodium falciparum. Nature of the experiment: Antimalarial activity against chloroquine-resistant Plasmodium falciparum K1. The class given is functional, organism-based.
The test system of experiment [2] is Plasmodium falciparum. Kind of experiment: Antimalarial activity against Plasmodium falciparum NF54. The format is functional, organism-based.

Take `CC1(O)CCC2CC1OO[C@@]2(CS(=O)(=O)c1ccccc1)c1ccccc1` (stereo partly drawn): in the experiment with Plasmodium falciparum [1] (Plasmodium falciparum, K1), the midpoint of inhibition, the IC50, lay at 0.092 µM.

Consider `O=C(CS(=O)(=O)c1ccccc1)c1ccccc1`, for which the IC50 in the experiment on Plasmodium falciparum [1] (Plasmodium falciparum, K1) is 1 µM.

For `CC(=O)OC1(C)CCC2CC1OO[C@]2(CS(=O)(=O)c1ccccc1)c1ccccc1` (stereo partly drawn), half-maximal inhibition in the experiment on Plasmodium falciparum [1] (Plasmodium falciparum, K1) (IC50) required 0.072 µM.

`CC1(O)CCC2CC1OO[C@]2(CS(=O)(=O)c1ccc(Cl)cc1)c1ccccc1` (stereo partly drawn) showed an IC50 in the experiment with Plasmodium falciparum [1] (Plasmodium falciparum, K1) of 0.225 µM.

In turn, `C[C@@H]1CC[C@H]2[C@@H](C)C(=O)O[C@@H]3O[C@@]4(C)CC[C@@H]1[C@]32OO4` [ARTEMISININ] had a 50% inhibitory concentration (IC50) in the experiment on Plasmodium falciparum [2] of 0.0089 µM.

For `CC1(O)CCC2CC1OO[C@]2(CSc1ccccc1)c1ccccc1` (stereo partly drawn), it took 0.298 µM to reach half-maximal inhibition with Plasmodium falciparum [1] (Plasmodium falciparum, K1) (IC50).

As for `CC(=O)OC1(C)CCC2CC1OO[C@@]2(CSc1ccccc1)c1ccccc1` (stereo partly drawn), the 50% inhibitory concentration (IC50) with Plasmodium falciparum [1] (Plasmodium falciparum, K1) was determined as 0.124 µM.

The compound `CC1(O)CCC2CC1OO[C@@]2(CSc1ccccc1)c1ccccc1` (stereo partly drawn) registered an IC50 in the experiment with Plasmodium falciparum [1] (Plasmodium falciparum, K1) of 0.081 µM.

With `CC(=O)OC1(C)CCC2CC1OO[C@]2(/C=C\c1ccccc1)c1ccccc1` (stereo partly drawn), the IC50 worked out at 0.023 µM in the experiment with Plasmodium falciparum [1] and 0.034 µM in the experiment with Plasmodium falciparum [1] (Plasmodium falciparum, K1).

Consider `CC1(O)CCC2CC1OO[C@@]2(CSc1ccc(Cl)cc1)c1ccccc1` (stereo partly drawn), for which 0.541 µM corresponded to half-maximal inhibition in the experiment on Plasmodium falciparum [1] (Plasmodium falciparum, K1) (IC50).

On to `CC(=O)OC1(C)CCC2CC1OO[C@@]2(CS(=O)(=O)c1ccccc1)c1ccccc1` (stereo partly drawn), for which, in the experiment with Plasmodium falciparum [1] (Plasmodium falciparum, K1), the IC50 was 0.042 µM.

Take `CC1(O)CCC2CC1OO[C@]2(CSc1ccc(Cl)cc1)c1ccccc1` (stereo partly drawn): the IC50 in the experiment on Plasmodium falciparum [1] (Plasmodium falciparum, K1) was determined as 0.247 µM.

Take `C[C@@H]1C(=O)C[C@H]2C[C@@H]1OO[C@@]2(C)/C=C\c1ccc(C(F)(F)F)cc1C(F)(F)F` [ARTEFLENE]: in the experiment with Plasmodium falciparum [1] (Plasmodium falciparum, K1), it took 0.076 µM to reach half-maximal inhibition (IC50).

`CC1(O)CCC2CC1OO[C@@]2(CS(=O)(=O)c1ccc(Cl)cc1)c1ccccc1` (stereo partly drawn) displayed an IC50 in the experiment on Plasmodium falciparum [1] (Plasmodium falciparum, K1) of 0.107 µM.

`CC1(O)CCC2CC1OO[C@]2(CS(=O)(=O)c1ccccc1)c1ccccc1` (stereo partly drawn) had an IC50 in the experiment with Plasmodium falciparum [1] (Plasmodium falciparum, K1) of 0.23 µM.

In the case of `CC1(OCc2ccccc2)CCC2CC1OO[C@@]2(C)CS(=O)(=O)c1ccccc1` (stereo partly drawn), the half-inhibitory concentration (IC50) with Plasmodium falciparum [2] stood at 0.0065 µM.

`CC(=O)OC1(C)CCC2CC1OO[C@]2(CSc1ccccc1)c1ccccc1` (stereo partly drawn): the IC50 with Plasmodium falciparum [1] (Plasmodium falciparum, K1) turned out to be 0.164 µM.
